# In US4443436A, “C-20-Modified macrolide derivatives of the macrolide antibiotics tylosin, desmycosin, macrocin, and lactenocin” (Eli Lilly and Company, priority 1982, dated 1984):
# Read-outs that look alike come from different tables or passages of the source.
# Assays:
# [1] = test system: Staphylococcus aureus X1.1; test: MIC, standard agar-dilution assay, Staphylococcus aureus X1.1; assay type: cell-based
# [2] = test system: Staphylococcus aureus V41; test: MIC, standard agar-dilution assay, Staphylococcus aureus V41; assay type: cell-based
# [3] = test system: Staphylococcus aureus X400; test: MIC, standard agar-dilution assay, Staphylococcus aureus X400; assay type: cell-based
# [4] = test system: Staphylococcus aureus S13E; test: MIC, standard agar-dilution assay, Staphylococcus aureus S13E; assay type: cell-based
# [5] = test system: Staphylococcus epidermidis EPI1; test: MIC, standard agar-dilution assay, Staphylococcus epidermidis EPI1; assay type: cell-based
# [6] = test system: Staphylococcus epidermidis EPI2; test: MIC, standard agar-dilution assay, Staphylococcus epidermidis EPI2; assay type: cell-based; details: Staphylococcus epidermidis EPI2, agar dilution
# [7] = test system: Streptococcus pyogenes C203; test: MIC, standard agar-dilution assay, Streptococcus pyogenes C203; assay type: cell-based
# [8] = test system: Streptococcus pneumoniae Park I; test: microbe, parasite or virus in culture; assay type: cell-based
# [9] = test system: Streptococcus Group D X66; test: MIC, standard agar-dilution assay, Streptococcus Group D X66; assay type: cell-based
# Streptococcus Group 9960 = test: MIC, standard agar-dilution assay, Streptococcus Group 9960; assay type: cell-based; details: Streptococcus Group 9960, agar dilution
# [10] = test system: Haemophilus influenzae Holt; test: MIC, standard agar-dilution assay, Haemophilus influenzae Holt; assay type: cell-based
# [11] = test system: Haemophilus influenzae R252; test: MIC, standard agar-dilution assay, Haemophilus influenzae R252; assay type: cell-based
# Staphylococcus aureus = test: MIC, broth-dilution microtiter test, Staphylococcus aureus; assay type: cell-based
# Excerpt: (§1) The MIC's in Table X were obtained using conventional broth-dilution microtiter tests.
# Streptococcus bovis 80 = test: MIC, broth-dilution microtiter test, Streptococcus bovis 80; assay type: cell-based
# Excerpt: as §1
# [12] = test system: Pasteurella multocida 17E; test: MIC, broth-dilution microtiter test, Pasteurella multocida 17E; assay type: cell-based
# Excerpt: as §1
# [13] = test system: Pasteurella multocida 60A; test: MIC, broth-dilution microtiter test, Pasteurella multocida 60A; assay type: cell-based
# Excerpt: as §1
# [14] = test system: Pasteurella hemolytica 22C; test: MIC, broth-dilution microtiter test, Pasteurella hemolytica 22C; assay type: cell-based
# Excerpt: as §1
# Mycoplasma gallisepticum = test: MIC, broth-dilution microtiter test, Mycoplasma gallisepticum; assay type: cell-based; details: Mycoplasma gallisepticum, broth-dilution microtiter
# Excerpt: as §1
# Mycoplasma synoviae = test: MIC, broth-dilution microtiter test, Mycoplasma synoviae; assay type: cell-based
# Excerpt: as §1
# Mycoplasma hyorhinis = test: MIC, broth-dilution microtiter test, Mycoplasma hyorhinis; assay type: cell-based
# Excerpt: as §1
# Mycoplasma hyopneumoniae = test: MIC, broth-dilution microtiter test, Mycoplasma hyopneumoniae; assay type: cell-based
# Excerpt: as §1
# [15] = test system: Streptococcus pyogenes C203; test: In vivo protection of mice experimentally infected with S. pyogenes C203; details: mice, doses given 1 and 4 hours post-infection; for ED50: Streptococcus pyogenes
# Protocol: The C-20 modified derivatives of this invention have shown in vivo antimicrobial activity against experimentally-induced infections in laboratory animals. When two doses of test compound were administered to mice experimentally infected with S. pyogenes C203, the activity observed was measured as an ED50 value [effective dose in mg/kg to protect 50% of the test animals: see Warren Wick, et al., J. Bacteriol. 81, 233-235 (1961)].
# Pasteurella multocida = test: Oral (gavage) treatment of Pasteurella multocida-infected chicks; assay type: in vivo, one-day-old chicks
# Protocol: Many of the C-20 modified derivatives of this invention have also shown in vivo antibacterial activity against infections induced by gram-negative bacteria. Tables XII and XIII summarize the results of tests in which illustrative compounds were evaluated against Pasteurella infection in one-day-old chicks. The compounds were administered parenterally or orally after challenge of the chicks with Pasteurella multocida (0.1 ml of a 10^-4 dilution of a twenty-hour tryptose broth culture of an avian P. multocida given subcutaneously). In these tests, unless indicated otherwise, all non-medicated infected chicks died within 24 hours of Pasteurella challenge. In the tests summarized in Table XII the compounds were administered by subcutaneous injection at a dosage of 30 mg/kg, 1 and 4 hours post-challenge of the chicks with P. multocida. In the test summarized in Table XIII the compounds were administered by gavage at 1 and 5 hours post-challenge of the chicks with P. multocida.
# [16] = Staphylococcus aureus X1.1, agar dilution
# [17] = Staphylococcus aureus V41, penicillin-resistant strain, agar dilution
# [18] = Staphylococcus aureus X400, methicillin-resistant strain, agar dilution
# [19] = Staphylococcus aureus S13E, agar dilution
# [20] = Staphylococcus epidermidis EPI1, agar dilution
# [21] = Streptococcus pyogenes C203, agar dilution
# [22] = Streptococcus pneumoniae Park I, agar dilution
# [23] = Streptococcus Group D X66, agar dilution
# [24] = Haemophilus influenzae Holt, ampicillin-sensitive strain, agar dilution
# [25] = Haemophilus influenzae R252, ampicillin-resistant strain, agar dilution
# [26] = Streptococcus bovis 80, broth-dilution microtiter
# [27] = Pasteurella multocida 17E, bovine isolate, broth-dilution microtiter
# [28] = Pasteurella multocida 60A, avian isolate, broth-dilution microtiter
# [29] = Pasteurella hemolytica 22C, broth-dilution microtiter
# [30] = Mycoplasma synoviae, broth-dilution microtiter
# [31] = Mycoplasma hyorhinis, broth-dilution microtiter
# [32] = Mycoplasma hyopneumoniae, broth-dilution microtiter
# [33] = Staphylococcus epidermidis, EPI1
# [34] = broth-dilution microtiter, read-out: MIC
# [35] = Streptococcus equinus, Streptococcus bovis 80, broth-dilution microtiter, read-out: MIC
# [36] = Pasteurella hemolytica 22C, broth-dilution microtiter, read-out: MIC
# [37] = Mycoplasmoides gallisepticum, read-out: MIC
# [38] = Mycoplasmopsis synoviae, Mycoplasma synoviae, broth-dilution microtiter, read-out: MIC
# [39] = Mycoplasma hyorhinis, broth-dilution microtiter, read-out: MIC
# [40] = C203, sc, subcutaneous, read-out: ED50, Subcutaneous
# [41] = C203, oral, read-out: ED50, Oral
structure (smiles),measurement,setting,value
"CCC1OC(=O)CC(O)C(C)C(OC2OC(C)C(O)C(N(C)C)C2O)C(CCOc2ccc(-c3ccccc3)cc2)CC(C)C(=O)C=CC(C)=CC1COC1OC(C)C(O)C(OC)C1OC (centres unmarked) [Compound 41, 20-DH-20-O-(p-Phenylphenyl)desmycosin]",MIC,[1]; [16],0.5 µg/mL
same,MIC,[2]; [17],0.25 µg/mL
same,MIC,[3]; [18],0.5 µg/mL
same,MIC,[4]; [19],0.25 µg/mL
same,MIC,[5]; [20],0.5 µg/mL
same,MIC,[6],0.25 µg/mL
same,MIC,[7]; [21],0.25 µg/mL
same,MIC,[8]; [22],0.25 µg/mL
same,MIC,[9]; [23],0.5 µg/mL
same,MIC,Streptococcus Group 9960,0.5 µg/mL
same,MIC,[10]; [24],16 µg/mL
same,MIC,[11]; [25],16 µg/mL
same,MIC,Staphylococcus aureus; broth-dilution microtiter,0.19 µg/mL
same,MIC,Streptococcus bovis 80; [26],0.39 µg/mL
same,MIC,[12]; [27],12.5 µg/mL
same,MIC,[13]; [28],12.5 µg/mL
same,MIC,[14]; [29],25 µg/mL
same,MIC,Mycoplasma gallisepticum,< 0.05 µg/mL
same,MIC,Mycoplasma synoviae; [30],0.39 µg/mL
same,MIC,Mycoplasma hyorhinis; [31],3.12 µg/mL
same,MIC,Mycoplasma hyopneumoniae; [32],3.12 µg/mL
same,"ED50, Oral",[15]; oral,25 mg/kg × 2
same,"ED50, Subcutaneous",[15]; subcutaneous,> 10 mg/kg × 2
"CCC1OC(=O)CC(O)C(C)C(OC2OC(C)C(O)C(N(C)C)C2O)C(CCSc2ccccc2)CC(C)C(=O)C=CC(C)=CC1COC1OC(C)C(O)C(OC)C1OC (centres unmarked) [Compound 23, 20-DH-DO-20-(phenylthio)desmycosin]",MIC,"[1]; Staphylococcus aureus, X1.1",0.25 µg/mL
same,MIC,"[2]; Staphylococcus aureus, V41",0.25 µg/mL
same,MIC,"[3]; Staphylococcus aureus, X400",0.25 µg/mL
same,MIC,"[4]; Staphylococcus aureus, S13E",0.25 µg/mL
same,MIC,[5]; [33],0.25 µg/mL
same,MIC,[6]; read-out: MIC,0.12 µg/mL
same,MIC,"[7]; Streptococcus pyogenes, C203",0.25 µg/mL
same,MIC,"[8]; Streptococcus pneumoniae Park I, agar dilution, read-out: MIC",2 µg/mL
same,MIC,"[9]; Streptococcus Group D X66, agar dilution, read-out: MIC",8 µg/mL
same,MIC,"Streptococcus Group 9960; GROUP9960, read-out: MIC",16 µg/mL
same,MIC,Staphylococcus aureus; [34],0.19 µg/mL
same,MIC,Streptococcus bovis 80; [35],6.25 µg/mL
same,MIC,"[12]; Pasteurella multocida, 17E",12.5 µg/mL
same,MIC,"[13]; Pasteurella multocida, 60A",12.5 µg/mL
same,MIC,[14]; [36],25 µg/mL
same,MIC,Mycoplasma gallisepticum; [37],0.09 µg/mL
same,MIC,Mycoplasma synoviae; [38],6.25 µg/mL
same,MIC,Mycoplasma hyorhinis; [39],> 50 µg/mL
same,MIC,"Mycoplasma hyopneumoniae; Mesomycoplasma hyopneumoniae, Mycoplasma hyopneumoniae, broth-dilution microtiter, read-out: MIC",> 25 µg/mL
same,ED50,[15]; [40],10 mg/kg
same,ED50,[15]; [41],17 mg/kg
same,Number of Deaths/Number tested,Pasteurella multocida; 0.5 g/gal equivalent,8/10
same,Number of Deaths/Number tested,Pasteurella multocida; 1.0 g/gal equivalent,10/10
"CCC1OC(=O)CC(O)C(C)C(OC2OC(C)C(O)C(N(C)C)C2O)C(CCOc2ccc(OC)cc2)CC(C)C(=O)C=CC(C)=CC1COC1OC(C)C(O)C(OC)C1OC (centres unmarked) [Compound 35, 20-DH-20-O-(p-Methoxyphenyl)desmycosin]",MIC,"[1]; Staphylococcus aureus, X1.1",0.25 µg/mL
same,MIC,"[2]; Staphylococcus aureus, V41",0.25 µg/mL
same,MIC,"[3]; Staphylococcus aureus, X400",0.25 µg/mL
same,MIC,"[4]; Staphylococcus aureus, S13E",0.25 µg/mL
same,MIC,[5]; [33],0.25 µg/mL
same,MIC,[6]; read-out: MIC,0.12 µg/mL
same,MIC,"[7]; Streptococcus pyogenes, C203",1 µg/mL
same,MIC,[8]; Streptococcus pneumoniae,1 µg/mL
same,MIC,[9],4 µg/mL
same,MIC,"Streptococcus Group 9960; GROUP9960, read-out: MIC",8 µg/mL
same,MIC,"[11]; Haemophilus influenzae, R252",16 µg/mL
same,MIC,Staphylococcus aureus; [34],0.39 µg/mL
same,MIC,"Streptococcus bovis 80; Streptococcus equinus, 80",1.56 µg/mL
same,MIC,"[12]; Pasteurella multocida, 17E",12.5 µg/mL
same,MIC,"[13]; Pasteurella multocida, 60A",12.5 µg/mL
same,MIC,[14]; [36],25 µg/mL
same,MIC,Mycoplasma gallisepticum; [37],0.39 µg/mL
same,MIC,Mycoplasma synoviae; Mycoplasmopsis synoviae,0.78 µg/mL
same,MIC,Mycoplasma hyorhinis; [39],> 50 µg/mL
same,MIC,Mycoplasma hyopneumoniae; Mesomycoplasma hyopneumoniae,6.25 µg/mL
same,ED50,[15]; [40],1.6 mg/kg
same,ED50,[15]; [41],11 mg/kg
same,Number of Deaths/Number tested,Pasteurella multocida; 1.5 g/gal equivalent,1/10
same,Number of Deaths/Number tested,Pasteurella multocida; 2.0 g/gal equivalent,4/10
"CCC1OC(=O)CC(O)C(C)C(OC2OC(C)C(O)C(N(C)C)C2O)C(CCOc2ccc(C=O)cc2)CC(C)C(=O)C=CC(C)=CC1COC1OC(C)C(O)C(OC)C1OC (centres unmarked) [Compound 36, 20-DH-20-O-(p-formylphenyl)desmycosin]",MIC,"[1]; Staphylococcus aureus, X1.1",0.25 µg/mL
same,MIC,"[2]; Staphylococcus aureus, V41",0.25 µg/mL
same,MIC,"[3]; Staphylococcus aureus, X400",0.25 µg/mL
same,MIC,"[4]; Staphylococcus aureus, S13E",0.25 µg/mL
same,MIC,[5]; [33],0.25 µg/mL
same,MIC,[6]; read-out: MIC,0.12 µg/mL
same,MIC,"[7]; Streptococcus pyogenes, C203",1 µg/mL
same,MIC,[8]; Streptococcus pneumoniae,1 µg/mL
same,MIC,[9],4 µg/mL
same,MIC,"Streptococcus Group 9960; GROUP9960, read-out: MIC",8 µg/mL
same,MIC,[10]; Haemophilus influenzae,16 µg/mL
same,MIC,"[11]; Haemophilus influenzae, R252",16 µg/mL
same,MIC,Staphylococcus aureus,12.5 µg/mL
same,MIC,Streptococcus bovis 80; [35],12.5 µg/mL
same,MIC,"[12]; Pasteurella multocida 17E, bovine isolate, broth-dilution microtiter, read-out: MIC",25 µg/mL
same,MIC,"[13]; Pasteurella multocida, 60A",12.5 µg/mL
same,MIC,"[14]; Pasteurella, 22C",50 µg/mL
same,MIC,Mycoplasma gallisepticum; [37],25 µg/mL
same,MIC,Mycoplasma synoviae; [38],> 50 µg/mL
same,MIC,Mycoplasma hyorhinis; Mycoplasma,50 µg/mL
same,MIC,Mycoplasma hyopneumoniae; Mesomycoplasma hyopneumoniae,12.5 µg/mL
same,ED50,[15]; [40],2.2 mg/kg
same,ED50,[15]; [41],19 mg/kg
"CCC1OC(=O)CC(O)C(C)C(OC2OC(C)C(O)C(N(C)C)C2O)C(CCOc2ccc(Oc3ccccc3)cc2)CC(C)C(=O)C=CC(C)=CC1COC1OC(C)C(O)C(OC)C1OC (centres unmarked) [Compound 47, 20-DH-20-O-(p-Phenoxyphenyl)desmycosin]",MIC,[1]; [16],0.5 µg/mL
same,MIC,[2]; [17],0.5 µg/mL
same,MIC,[3]; [18],0.5 µg/mL
same,MIC,[4]; [19],0.25 µg/mL
same,MIC,[5]; [20],0.5 µg/mL
same,MIC,[6],0.25 µg/mL
same,MIC,[7]; [21],0.25 µg/mL
same,MIC,[8]; [22],0.25 µg/mL
same,MIC,[9]; [23],0.5 µg/mL
same,MIC,Streptococcus Group 9960,1 µg/mL
same,MIC,[10]; [24],16 µg/mL
same,MIC,[11]; [25],16 µg/mL
same,MIC,Staphylococcus aureus; broth-dilution microtiter,0.78 µg/mL
same,MIC,Streptococcus bovis 80; [26],0.09 µg/mL
same,MIC,[12]; [27],25 µg/mL
same,MIC,[13]; [28],25 µg/mL
same,MIC,[14]; [29],25 µg/mL
same,MIC,Mycoplasma gallisepticum,< 0.05 µg/mL
same,MIC,Mycoplasma synoviae; [30],0.09 µg/mL
same,MIC,Mycoplasma hyorhinis; [31],6.25 µg/mL
same,MIC,Mycoplasma hyopneumoniae; [32],3.12 µg/mL
same,"ED50, Oral",[15]; oral,29 mg/kg × 2
same,"ED50, Subcutaneous",[15]; subcutaneous,> 10 mg/kg × 2
